Each structure is given as a SMILES string.

For the test, the target named is 15-PGDH/HPGD (Homo sapiens (Human), UniProt P15428). The test can be described thus: hPGDH inhibitor screening biochemical assay. As to conditions: read-out: hPGDH: Average IC50. As to the method: A hydroxyprostaglandin dehydrogenase inhibition screening biochemical assay can be performed to assess the synthesized inhibitors provided herein. Provided herein is an exemplary biochemical assay for hPGDH inhibitor screening.
Sequence of 15-PGDH/HPGD (P15428 whole entry): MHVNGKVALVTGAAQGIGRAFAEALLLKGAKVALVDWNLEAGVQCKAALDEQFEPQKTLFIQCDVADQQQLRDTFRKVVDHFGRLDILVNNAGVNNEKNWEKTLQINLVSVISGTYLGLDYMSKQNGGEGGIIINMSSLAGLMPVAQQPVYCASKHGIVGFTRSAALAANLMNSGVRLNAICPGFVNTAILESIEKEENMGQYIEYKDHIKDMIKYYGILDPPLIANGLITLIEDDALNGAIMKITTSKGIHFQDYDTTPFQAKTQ
The in vitro biochemical assay can be performed in white, 384 plates in total 20 μl reaction volume consisting of 10 nM of 15-PGDH/HPGD (R&D System #5660-DH), 15 μM Prostaglandin E2 (Sigma, Cat #P5640-10MG) and 0.25 mM (3-Nicotinamide adenine dinucleotide sodium salt (Sigma, Cat #N0632-5G) made in reaction buffer (50 mM Tris-HCl, pH 7.5, 0.01% Tween 20) at 10-point dose response curve for test/tool compounds. Briefly, 5 μl (4×) of compounds solution and 5 μl (final concentration, 10 nM) of enzyme solution is added to white 384 well plates and incubated for 10 mins at 37° C. 5 μl (4×) of Prostaglandin E2 and 5 μl (4×) of β-Nicotinamide adenine dinucleotide sodium salt is added to the wells and incubated for 10 mins at room temperature. Fluorescence is recorded at ex/em=340 nm/485 nm. The percentage (%) inhibition of enzyme activity was determined relative to positive control (1% DMSO) and IC50 was calculated using GraphPad prism software (four parameter-variable slope equation).
On to `COc1ccc(-n2ccc3cc(C(=O)N4[C@H](C)CCC[C@@H]4C)cnc32)cc1` [MF-DH-328, ((2R,6S)-2,6-dimethylpiperidin-1-yl)(1-(4-methoxyphenyl)-1H-pyrrolo[2,3-b]pyridin-5-yl)methanone], for which the 50% inhibitory concentration (IC50) is 100 to 1000 nM.
`COc1ccc(-n2cc(Cl)c3cc(C(=O)N4CCC(F)CC4)cnc32)cc1` [MF-DH-191, (3-chloro-1-(4-methoxyphenyl)-1H-pyrrolo[2,3-b]pyridin-5-yl)(4-fluoropiperidin-1-yl)methanone]: the IC50 is less than 100 nM.
`O=C(c1ccc2c(c1)ncn2-c1cccc(Cl)c1)N1CCCCCC1` [MF-PGDH-016]: the IC50 was less than 100 nM.
In the case of `N#Cc1cncc(-n2ccc3cc(C(=O)N4CCCCC4)cnc32)c1` [MF-DH-364], the IC50 is less than 100 nM.
The same measure for `COc1cccc(-n2cc(Cl)c3cc(C(=O)N4CCCCC4)cnc32)c1` [MF-DH-273]: less than 100 nM; for `COc1ccc(-n2c(CCNC(C)=O)nc3cc(C(=O)N4CCC(F)CC4)cnc32)cc1` [MF-DH-117]: not below 1000 nM.
Consider `Cc1c(C(=O)N2CCC(F)CC2)cnc2c1ccn2-c1cnccn1` [MF-DH-150, (4-fluoropiperidin-1-yl)(4-methyl-1-(pyrazin-2-yl)-1H-pyrrolo[2,3-b]pyridin-5-yl)methanone], for which the IC50 was less than 100 nM.
Consider `COc1ccc(-n2c(C)nc3cc(C(=O)N4CCC(F)CC4)cnc32)cc1` [MF-DH-176], for which the IC50 was in the range of 100 to 1000 nM.
In the case of `COc1ccc(-c2c[nH]c3cc(C(=O)N4CCC(F)CC4)cnc23)cc1` [MF-DH-204], the IC50 was in the range of 100 to 1000 nM.
On to `O=C(c1cnc2c(ccn2-c2ccc3[nH]ncc3c2)c1)N1CCCCC1` [MF-DH-319, (1-(1H-indazol-5-yl)-1H-pyrrolo[2,3-b]pyridin-5-yl)(piperidin-1-yl)methanone], for which the half-inhibitory concentration (IC50) was less than 100 nM.
Take `NC(=O)c1ccc(-n2ccc3cc(C(=O)N4CCCCC4)cnc32)cc1` [MF-DH-299]: the IC50 is less than 100 nM.
Regarding `O=C(c1ccc(COc2ccccc2-c2ccccn2)cc1)N1CCCCC1` [MF-PGDH-095], the IC50 was less than 100 nM.
In the case of `COc1ccc(Cn2cnc(-n3ccc4cc(C(=O)N5CCCCC5)cnc43)c2)cc1` [MF-DH-128], the IC50 fell in the range of 100 to 1000 nM.
For the molecule `O=C(c1cnc2c(ccn2-c2c[nH]cn2)c1)N1CCCCC1` [MF-PGDH-075], the half-maximal inhibitory concentration (IC50) is less than 100 nM.
In the case of `N#Cc1ccc(-n2ccc3cc(C(=O)N4CCC(F)(F)CC4)cnc32)nc1` [MF-DH-440], the IC50 lay in the range of 100 to 1000 nM.
As for `O=C(c1ccc(CS(=O)(=O)c2ccccc2Cl)cc1)N1CCCCC1` [MF-PGDH-040, (4-(((2-chlorophenyl)sulfonyl)methyl)phenyl)(piperidin-1-yl)methanone], the IC50 was 100 to 1000 nM.
With `NC(=O)[C@@H]1CCCN1C(=O)c1cccc(-n2ccc3cc(C(=O)N4CCC(F)(F)CC4)cnc32)c1` [MF-DH-486, (S)-1-(3-(5-(4,4-difluoropiperidine-1-carbonyl)-1H-pyrrolo[2,3-b]pyridin-1-yl)benzoyl)pyrrolidine-2-carboxamide], the half-inhibitory concentration (IC50) is less than 100 nM.
In the case of `O=C(NC1CCNCC1)c1ccc(-n2ccc3cc(C(=O)N4CCC(F)(F)CC4)cnc32)cc1` [MF-DH-419] it was less than 100 nM.
In the case of `COc1ccc(-n2cnc3cc(C(=O)N4CCCCC4)ccc32)cc1` [MF-PGDH-008] it was less than 100 nM; in that of `O=C(Nc1ccc(C(=O)N2CCCCC2)cc1)c1ccccc1Cl` [MF-PGDH-088], 100 to 1000 nM; in that of `Cn1cc(-c2cccc(Cl)c2)c2ccc(C(=O)N3CCCCC3)cc21` [MF-PGDH-054, (3-(3-chlorophenyl)-1-methyl-1H-indol-6-yl)(piperidin-1-yl)methanone], less than 100 nM.
The same measure for `COc1ccc(-n2ccc3cc(C(=O)N4CCC(F)CC4)cnc32)cn1` [MF-DH-157]: less than 100 nM.
Take `Cn1cc(-n2ccc3cc(C(=O)N4CCC(F)CC4)cnc32)cn1` [MF-DH-139]: the IC50 was less than 100 nM.
Regarding `O=C(c1ccc2c(c1)ncn2-c1cccc(Cl)c1)N1CCC(F)C1` (stereo not drawn) [MF-PGDH-048], the 50% inhibitory concentration (IC50) was 100 to 1000 nM.
`O=C(c1cnc2c(ccn2-c2ccccn2)c1)N1CCCCC1` [MF-PGDH-067]: the IC50 was less than 100 nM.
Take `N#Cc1ccc(-n2cnc3cc(C(=O)N4CC(Cl)C4)cnc32)cc1` [MF-DH-443]: the IC50 is less than 100 nM.
As for `NC(=O)c1cccc(-n2ccc3cc(C(=O)N4CCCCC4)cnc32)c1` [MF-DH-301], the IC50 is less than 100 nM.
In the case of `O=C(c1cnc2c(ccn2-c2cccnc2)c1)N1CCC(F)CC1` [MF-DH-134], the 50% inhibitory concentration (IC50) is less than 100 nM.
In the case of `O=C(c1ccc2c(c1)ncn2-c1cccc(Cl)c1)N1CC2CCCC2C1` (stereo not drawn) [MF-PGDH-015], the IC50 is less than 100 nM.
The same measure for `CN(C)C(=O)c1cncc(-n2ccc3cc(C(=O)N4CCCCC4)cnc32)c1` [MF-DH-363]: less than 100 nM; for `O=C(c1cnc2c(ccn2-c2ccc(-c3noc(=O)[nH]3)nc2)c1)N1CCC(F)(F)CC1` [MF-DH-456, 3-(5-(5-(4,4-difluoropiperidine-1-carbonyl)-1H-pyrrolo[2,3-b]pyridin-1-yl)pyridin-2-yl)-1,2,4-oxadiazol-5(4H)-one]: less than 100 nM.
`N#Cc1ccc(-n2ccc3nc(C(=O)N4CCC(F)CC4)ccc32)cc1` [MF-DH-462, 4-(5-(4-fluoropiperidine-1-carbonyl)-1H-pyrrolo[3,2-b]pyridin-1-yl)benzonitrile]: the IC50 was not below 1000 nM.
Regarding `O=C(c1cnc2c(c(Cl)cn2-c2cnccn2)c1Cl)N1CCC(F)CC1` [MF-DH-147], the IC50 is less than 100 nM.
The same measure for `COc1cc(C(=O)N2CCCCC2)ccc1COc1ccccc1Cl` [MF-PGDH-038]: less than 100 nM.
The same measure for `CC(N)c1cccc(-n2ccc3cc(C(=O)N4CCCCC4)cnc32)c1` (stereo not drawn) [MF-DH-376, (1-(3-(1-aminoethyl)phenyl)-1H-pyrrolo[2,3-b]pyridin-5-yl)(piperidin-1-yl)methanone]: 100 to 1000 nM.
On to `COc1ccccc1-c1cn(C)c2cc(C(=O)N3CCC(F)CC3)cnc12` [MF-DH-200, (4-fluoropiperidin-1-yl)(3-(2-methoxyphenyl)-1-methyl-1H-pyrrolo[3,2-b]pyridin-6-yl)methanone], for which the IC50 was not below 1000 nM.
As for `COc1ccc(-n2ccc3cc(C(=O)N4CCC(c5ccccc5)CC4)cnc32)cc1` [MF-DH-325], the IC50 was not below 1000 nM.
With `O=C(c1cnc2c(ccn2-c2cccc(CO)c2)c1)N1CCC(F)CC1` [MF-DH-348], the IC50 is less than 100 nM.
In the case of `CC(C)(C#Cc1ccc(-n2ccc3cc(C(=O)N4CCC(F)(F)CC4)cnc32)cn1)S(C)(=O)=O` [MF-DH-465, (4,4-difluoropiperidin-1-yl)(1-(6-(3-methyl-3-(methylsulfonyl)but-1-yn-1-yl)pyridin-3-yl)-1H-pyrrolo[2,3-b]pyridin-5-yl)methanone] it was 100 to 1000 nM; in that of `CN(C)c1ccc(-n2ccc3cc(C(=O)N4CCCCC4)cnc32)cn1` [MF-DH-366], less than 100 nM; in that of `O=C(c1ccc2c(c1)ncn2-c1cccc(Cl)c1)N1CCC(F)(F)CC1` [MF-PGDH-026], less than 100 nM.
In the case of `O=C(c1ccc2c(c1)ncn2-c1ccc(O)c(Cl)c1)N1CCCCC1` [MF-PGDH-061, (1-(3-chloro-4-hydroxyphenyl)-1H-benzo[d]imidazol-5-yl)(piperidin-1-yl)methanone] it was less than 100 nM; in that of `O=C(c1cnc2c(c1)c(Cl)cn2-c1cccnc1)N1CCC(F)CC1` [MF-DH-135], less than 100 nM; in that of `COc1ccc(-n2cnc3cc(C(=O)N4CCC(F)CC4)ccc32)cc1` [MF-PGDH-009], less than 100 nM.
Regarding `COc1ccc(-n2ccc3c(NCc4ccccc4)c(C(=O)N4CCCCC4)cnc32)cc1` [MF-DH-385, (4-(benzylamino)-1-(4-methoxyphenyl)-1H-pyrrolo[2,3-b]pyridin-5-yl) (piperidin-1-yl) methanone], the IC50 is 100 to 1000 nM.
Regarding `CS(=O)(=O)c1cccc(-n2ccc3cc(C(=O)N4CCCCC4)cnc32)c1` [MF-DH-309], the IC50 was less than 100 nM.
On to `C[C@H]1CCCN(C(=O)c2cnc3c(ccn3-c3ccc(C(=O)O)cc3)c2)C1` [MF-DH-562, (S)-4-(5-(3-methylpiperidine-1-carbonyl)-1H-pyrrolo[2,3-b]pyridin-1-yl)benzoic acid], for which the IC50 was less than 100 nM.
On to `COc1ccc(-n2c(CCC(C)(C)O)cc3cc(C(=O)N4CCCCC4)cnc32)cc1` [MF-DH-330, (2-(3-hydroxy-3-methylbutyl)-1-(4-methoxyphenyl)-1H-pyrrolo[2,3-b]pyridin-5-yl)(piperidin-1-yl)methanone], for which the IC50 is less than 100 nM.
`COc1cncc(-n2cc(Cl)c3cc(C(=O)N4CCCCC4)cnc32)c1` [MF-DH-275]: the IC50 was less than 100 nM.
For the molecule `CS(=O)(=O)n1ccc2cc(C(=O)N3CCCCC3)cnc21` [MF-DH-311, (1-(methylsulfonyl)-1H-pyrrolo[2,3-b]pyridin-5-yl)(piperidin-1-yl)methanone], the IC50 is not below 1000 nM.
The same measure for `CNC(=O)c1cncc(-n2ccc3cc(C(=O)N4CCCCC4)cnc32)c1` [MF-DH-362]: less than 100 nM; for `O=C(c1cnc2c(ccn2-c2cccc(CO)c2)c1)N1CCCCC1` [MF-DH-308]: less than 100 nM; for `CCOC(=O)CCc1nc2cc(C(=O)N3CCCCC3)ccc2n1-c1cccc(Cl)c1` [MF-PGDH-033, ethyl 3-(1-(3-chlorophenyl)-5-(piperidine-1-carbonyl)-1H-benzo[d]imidazol-2-yl)propanoate]: less than 100 nM.
In the case of `O=C(c1ccc2c(c1)ncn2-c1cccc(Cl)c1)N1CC2CCC(C2)C1` [MF-PGDH-018] it was less than 100 nM.

In general, IC50 refers to the point on the concentration scale where inhibition reaches its midpoint.

The record behind these values is US11345702B1 (Myoforte Therapeutics, Inc., priority 2020, dated 2022).
